Experimental data published in ChEMBL document CHEMBL5150036, “Photoredox-based late-stage functionalization in SAR study for in vivo potent glucosylceramide synthase inhibitor” (Bioorg Med Chem Lett, 2022).

Legend:
[1] = Unbound brain-to-plasma concentration ratio in ICR mouse at 10 mg/kg, po measured after 60 mins by LC-MS/MS analysis; format: ADME, organism-based; details: read-out: K(p,uu,brain)
[2] = Drug concentration in ICR mouse plasma at 10 mg/kg, po measured after 60 mins by LC-MS/MS analysis; format: ADME, organism-based
[3] = 1-Octanol/aqueous buffer partition coefficient, logD of the compound at pH 7.4 by chromatographic method; format: physicochemical
[4] = Drug concentration in ICR mouse brain at 10 mg/kg, po measured after 60 mins by LC-MS/MS analysis; format: ADME, organism-based; details: read-out: Ct
[5] = Unbound drug concentration in ICR mouse brain at 10 mg/kg, po measured after 60 mins by LC-MS/MS analysis; format: ADME, organism-based; details: in vivo, 1 h
[6] = Metabolic stability in mouse liver microsomes assessed as intrinsic clearance at 1 uM in the presence of NADPH regenerating system by LC/MS/MS analysis; format: ADME, Microsome; details: read-out: CLH
[7] = Unbound drug concentration in ICR mouse plasma at 10 mg/kg, po measured after 60 mins by LC-MS/MS analysis; format: ADME, organism-based; details: in vivo, 1 h
[8] = Metabolic stability in human liver microsomes assessed as intrinsic clearance at 1 uM in the presence of NADPH regenerating system by LC/MS/MS analysis; format: ADME, Microsome; details: read-out: CLH

SMILES | Kp uu at 1 h [1] | concentration at 1 h [2] | chromatographic logD [3] | concentration at 1 h [4] | Drug uptake(free) [5] | microsomal CLint at 1 µM [6] | Cp(f) [7] | microsomal CLint at 1 µM [8]
Cc1cc2c(c(-c3ccccc3OCC(F)(F)F)n1)CN(c1ccc(C(C)(C)O)cc1)C2=O | 0.11 | 1940 ng/mL | 2.85 | 1140 ng/g | 43 nM | 4 µL/min/mg | 387 nM | –
CC(C)(O)c1ccc(N2Cc3c(cc(C4(C)COC4)nc3-c3ccccc3OCC(F)(F)F)C2=O)cc1 | 0.04 | 76 ng/mL | 2.9 | 17 ng/g | 0.7 nM | 52 µL/min/mg | 17 nM | 33 µL/min/mg
Cc1cc2c(c(-c3ccccc3OCC(F)F)n1)CN(c1ccc(C(C)(C)O)cc1)C2=O | – | – | 2.69 | – | – | 1 µL/min/mg | – | –
CC(C)(O)c1ccc(N2Cc3c(ccnc3-c3ccccc3OCC(F)(F)F)C2=O)cc1 | – | – | 2.37 | – | – | 12 µL/min/mg | – | 40 µL/min/mg
CC(C)(O)c1ccc(N2Cc3c(cc(C4CCOCC4)nc3-c3ccccc3OCC(F)F)C2=O)cc1 | – | – | 2.98 | – | – | 5 µL/min/mg | – | 1 µL/min/mg
CC(C)(O)c1ccc(N2Cc3c(cc(C(C)(C)O)nc3-c3ccccc3OCC(F)F)C2=O)cc1 | – | – | 2.77 | – | – | – | – | 3 µL/min/mg
CC(C)(O)c1ccc(N2Cc3c(cc(C4CCCCC4)nc3-c3ccccc3OCC(F)F)C2=O)cc1 | – | – | 4.63 | – | – | 56 µL/min/mg | – | 33 µL/min/mg
CN(C)C(=O)c1cc2c(c(-c3ccccc3OCC(F)F)n1)CN(c1ccc(C(C)(C)O)cc1)C2=O | – | – | 1.85 | – | – | – | – | –
CC(C)(O)c1ccc(N2Cc3c(cc(C(C)(C)F)nc3-c3ccccc3OCC(F)F)C2=O)cc1 | – | – | 3.69 | – | – | 1 µL/min/mg | – | –
CC(C)(O)c1ccc(N2Cc3c(cc(C4(C)COC4)nc3-c3ccccc3OCC(F)F)C2=O)cc1 | 0.03 | 284 ng/mL | 2.76 | 65 ng/g | 3.9 nM | 32 µL/min/mg | 124 nM | 16 µL/min/mg
CC(C)(O)c1ccc(N2Cc3c(cc(C(F)F)nc3-c3ccccc3OCC(F)F)C2=O)cc1 | – | – | 2.86 | – | – | – | – | –
CC(C)(O)c1ccc(N2Cc3c(ccnc3-c3ccccc3OCC(F)F)C2=O)cc1 | – | – | 2.2 | – | – | 27 µL/min/mg | – | 17 µL/min/mg
CC(C)(O)c1ccc(N2Cc3c(cc(C4CCCOC4)nc3-c3ccccc3OCC(F)F)C2=O)cc1 (racemic) | – | – | 3.19 | – | – | 46 µL/min/mg | – | 61 µL/min/mg
